Results on six compounds are retold here after ChEMBL document CHEMBL2417543, “Potential neuroprotective flavonoid-based inhibitors of CDK5/p25 from Rhus parviflora” (Bioorg Med Chem Lett, 2013).

As a reminder, the IC50 is the concentration at which inhibition is half-maximal.

What all share (type): protein-complex assay
The target of experiment [1] is T1, Cyclin-dependent kinase 5/CDK5 activator 1 (Homo sapiens, UniProt Q00535). Put plainly: Inhibition of CDK5/p25 (unknown origin) after 30 mins by SDS-PAGE analysis.
T1 sequence (Q00535 whole entry): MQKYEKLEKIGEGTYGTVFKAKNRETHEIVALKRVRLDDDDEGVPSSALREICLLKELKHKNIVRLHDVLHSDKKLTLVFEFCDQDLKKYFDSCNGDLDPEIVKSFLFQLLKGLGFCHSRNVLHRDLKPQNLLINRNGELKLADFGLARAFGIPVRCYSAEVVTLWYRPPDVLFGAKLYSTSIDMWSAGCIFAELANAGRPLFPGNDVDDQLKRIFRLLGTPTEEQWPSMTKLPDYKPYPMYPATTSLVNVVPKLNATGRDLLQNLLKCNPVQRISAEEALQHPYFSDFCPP
T1 sequence (Q15078 whole entry, further chain): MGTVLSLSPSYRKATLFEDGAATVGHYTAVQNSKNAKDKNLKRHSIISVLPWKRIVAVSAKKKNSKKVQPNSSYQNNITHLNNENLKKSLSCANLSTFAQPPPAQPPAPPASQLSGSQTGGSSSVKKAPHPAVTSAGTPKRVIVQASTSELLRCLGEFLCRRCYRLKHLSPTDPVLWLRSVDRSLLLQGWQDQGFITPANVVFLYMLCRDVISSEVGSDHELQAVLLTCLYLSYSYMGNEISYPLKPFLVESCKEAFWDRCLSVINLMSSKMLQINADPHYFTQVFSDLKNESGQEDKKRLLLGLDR
Experiment [2] concerns the target T1, Cyclin-dependent kinase 5/CDK5 activator 1. Put plainly: Inhibition of CDK5/p25 (unknown origin)-mediated incorporation of gamma33P into substrate after 20 mins by scintillation counting analysis in presence of 33P-ATP.
For experiment [3], the target named is T2, Cyclin-dependent kinase 5/CDK5 activator 1 (Homo sapiens) (UniProt Q00535+Q15078). Put plainly: Inhibition of CDK5/p25 (unknown origin)-mediated incorporation of gamma33P into substrate assessed as change in enzyme activity at 0.005 uM after 20 mins by scintillation counting analysis in presence of 33P-ATP relative to negative control. The arrangement: scale not given: the % may be the effect or the level left.
T2 sequence (Q00535 whole entry): as the sequence (Q00535 whole entry) above
T2 sequence (Q15078 99-307 partner limits assumed): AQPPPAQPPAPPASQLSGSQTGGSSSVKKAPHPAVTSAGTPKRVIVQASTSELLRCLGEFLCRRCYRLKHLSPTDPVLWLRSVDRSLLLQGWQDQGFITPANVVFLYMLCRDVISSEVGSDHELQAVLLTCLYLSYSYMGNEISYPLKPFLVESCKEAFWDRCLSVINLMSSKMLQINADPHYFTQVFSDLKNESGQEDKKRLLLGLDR

Experiment [4] addresses T2, Cyclin-dependent kinase 5/CDK5 activator 1 (Homo sapiens). In words: Inhibition of CDK5/p25 (unknown origin)-mediated incorporation of gamma33P into substrate assessed as change in enzyme activity at 0.05 uM after 20 mins by scintillation counting analysis in presence of 33P-ATP relative to negative control. The arrangement: scale not given: the % may be the effect or the level left.

The target is the same in experiment [5]. In words: Inhibition of CDK5/p25 (unknown origin)-mediated incorporation of gamma33P into substrate assessed as change in enzyme activity at 0.5 uM after 20 mins by scintillation counting analysis in presence of 33P-ATP relative to negative control. The arrangement: scale not given: the % may be the effect or the level left.
Experiment [6] has the same target. In words: Inhibition of CDK5/p25 (unknown origin)-mediated incorporation of gamma33P into substrate assessed as change in enzyme activity at 50 uM after 20 mins by scintillation counting analysis in presence of 33P-ATP relative to negative control. The arrangement: scale not given: the % may be the effect or the level left.
For experiment [7] the target is unchanged. Put plainly: Inhibition of CDK5/p25 (unknown origin)-mediated incorporation of gamma33P into substrate assessed as change in enzyme activity at 5 uM after 20 mins by scintillation counting analysis in presence of 33P-ATP relative to negative control. Also noted: scale not given: the % may be the effect or the level left.

Structures are written as SMILES.

With `O=C1/C(=C/c2ccc(O)c(O)c2)Oc2cc(O)cc(O)c21` [AUREUSIDIN], the 50% inhibitory concentration (IC50) is 3.5 µM in experiment [1] and 4.81 µM in experiment [2]. The Activity in experiment [3] is 0%; in experiment [4] it was -2%; in experiment [5], -20%; in experiment [6], -88%; in experiment [7], -47%.
As to `O=C1c2c(O[C@@H]3O[C@H](CO)[C@@H](O)[C@H](O)[C@H]3O)cc(O)cc2OC1(O)Cc1ccc(O)cc1` (some centres undefined), the values for the IC50 in experiment [1] and in experiment [2] were 44.4 µM and more than 50 µM, respectively. Further, the Activity in experiment [3] is -3%; in experiment [4], 1%; in experiment [5] it was 2%; in experiment [6] it was -15%; in experiment [7] it was -7%.
In experiment [1], `O=c1c(O[C@@H]2O[C@H](CO)[C@H](O)[C@H](O)[C@H]2O)c(-c2ccc(O)c(O)c2)oc2cc(O)cc(O)c12` [HYPEROSIDE] returned a half-inhibitory concentration (IC50) of 10.3 µM.
Regarding `O=c1cc(-c2ccc(O)cc2)oc2c(-c3c(O)cc(O)c4c(=O)cc(-c5ccc(O)cc5)oc34)c(O)cc(O)c12` [CUPRESSUFLAVONE], the concentration for half-maximal inhibition (IC50) in experiment [1] is 9.29 µM.
On to `O=C1/C(=C/c2ccc(O)c(O)c2)Oc2cc(O)ccc21` [SULFURETIN], for which 37 µM corresponded to half-maximal inhibition in experiment [1] (IC50).
Regarding `O=C1/C(=C/c2ccc(O)c(O)c2)Oc2cc(O[C@@H]3O[C@H](CO)[C@@H](O)[C@H](O)[C@H]3O)cc(O)c21`, the 50% inhibitory concentration (IC50) was 22.3 µM in experiment [1] and 24.3 µM in experiment [2]. Further, the Activity in experiment [3] is -2%; in experiment [4], -4%; in experiment [5], -5%; in experiment [6], -65%; in experiment [7], -20%.
